Where a name gives a salt, the structure may show the parent alone.
Structure (SMILES) | melting point
Oc1ccc(-c2cc3cc(O)ccc3o2)c(-c2ccc(OCCN3CCCC3)cc2)c1 (as salt: hydrochloride) [Example 108, 2-[5-Hydroxy-4′-(2-pyrrolidin-1-yl-ethoxy)-biphenyl-2-yl]-benzofuran-5-ol] | 266 to 269 °C
COc1ccc(-c2cc3cc(OC)cc(CO)c3o2)cc1 [Example 3, [5-Methoxy-2-(4-methoxy-phenyl)-benzofuran-7-yl]-methanol] | 128 to 130 °C
Oc1ccc(-c2cc3cc(O)cc(CBr)c3o2)cc1 [Example 4, 7-Bromomethyl-2-(4-hydroxy-phenyl)-benzofuran-5-ol] | 337 to 339 °C
CSCc1cc(O)cc2cc(-c3ccc(O)cc3)oc12 [Example 10, 2-(4-Hydroxy-phenyl)-7-methylsulfanylmethyl-benzofuran-5-ol] | 188 to 190 °C
CCSCc1cc(O)cc2cc(-c3ccc(O)cc3)oc12 [Example 11, 7-Ethylsulfanylmethyl-2-(4-hydroxy-phenyl)-benzofuran-5-ol] | 181 to 183 °C
N#CSCc1cc(O)cc2cc(-c3ccc(O)cc3)oc12 [Example 15, 2-(4-Hydroxy-phenyl)-7-thiocyanatomethyl-benzofuran-5-ol] | 190 to 192 °C
Oc1ccc(-c2cc3cc(O)cc(Cn4ccnc4)c3o2)cc1 [Example 16, 2-(4-Hydroxy-phenyl)-7-imidazol-1-ylmethyl-benzofuran-5-ol] | 269 to 271 °C
CC(C#N)c1cc(O)cc2cc(-c3ccc(O)cc3)oc12 (stereo not drawn) [Example 21, 2-[5-Hydroxy-2-(4-hydroxy-phenyl)-benzofuran-7-yl]-propionitrile] | 183 to 185 °C
CCc1cc(O)cc2cc(-c3ccc(O)cc3)oc12 [Example 30, 7-Ethyl-2-(4-hydroxy-phenyl)-benzofuran-5-ol] | 218 to 220 °C
COC(=O)C=Cc1cc(O)cc2cc(-c3ccc(O)cc3)oc12 [Example 59, 3-[5-Hydroxy-2-(4-hydroxy-phenyl)benzofuran-7-yl]-acrylic acid methyl ester] | 231 to 234 °C
COC(=O)CCc1cc(O)cc2cc(-c3ccc(O)cc3)oc12 [Example 60, 3-[5-Hydroxy-2-(4-hydroxy-phenyl)-benzofuran-7-yl]-propionic acid methyl ester] | 167 to 170 °C
C=Cc1cc(O)cc2cc(-c3ccc(O)cc3)oc12 [Example 67, 2-(4-Hydroxy-phenyl)-7-vinyl-benzofuran-5-ol] | 182 to 184 °C
O=C(c1cc(O)cc2cc(-c3ccc(O)cc3)oc12)C(F)(F)F [Example 68, 2,2,2-Trifluoro-1-[5-hydroxy-2-(4-hydroxy-phenyl)-benzofuran-7-yl]-ethanone] | 215 to 216 °C
COc1cc(O)c(C#N)c2cc(-c3ccc(O)c(F)c3)oc12 [Example 73a, 2-(3-Fluoro-4-hydroxy-phenyl)-5-hydroxy 7-methoxy-benzofuran-4-carbonitrile] | 265 to 267 °C
Oc1ccc(-c2cc3cc(F)ccc3o2)cc1 [Example 91, 4-(5-Fluoro-benzofuran-2-yl)-phenol] | 202 to 204 °C
Oc1ccc2oc(-c3cc(OCc4ccccc4)c(O)cc3-c3ccccc3)cc2c1 [Example 104, 2-(4-Benzyloxy-5-hydroxy-biphenyl-2-yl)-benzofuran-5-ol] | 186 to 187 °C
CC(=O)c1c(-c2ccc(O)cc2)oc2ccc(O)cc12 [Example 110, 1-[5-Hydroxy-2-(4-hydroxy-phenyl)-benzofuran-3-yl]-ethanone] | 243 to 251 °C
CC(C)c1cc(O)cc2cc(-c3ccc(O)cc3)oc12 [Example 118, 2-(4-Hydroxy-phenyl)-7-isopropyl-benzofuran-5-ol] | 192 to 194 °C
CON(C)C(=O)c1cc(O)cc2cc(-c3ccc(O)cc3)oc12 [Example 119, 5-Hydroxy-2-(4-hydroxy-phenyl)-benzofuran-7-carboxylic acid methoxy-methyl-amide] | 125 to 127 °C
Oc1ccc(-c2cc3c(Br)c(O)ccc3o2)cc1 [Example 130, 4-Bromo-2-(4-hydroxy-phenyl)-benzofuran-5-ol] | 196 to 198 °C
Oc1ccc(-c2cc3c(Cl)c(O)ccc3o2)cc1 [Example 131, 4-Chloro-2-(4-hydroxy-phenyl)-benzofuran-5-ol] | 210 to 214 °C
COc1c(O)ccc2oc(-c3ccc(O)cc3)cc12 [Example 132, 2-(4-Hydroxy-phenyl)-4-methoxy-benzofuran-5-ol] | 165 to 171.68 °C
Oc1ccc(-c2cc3cc(O)cc(-c4nnco4)c3o2)cc1 [Example 138, 2-(4-Hydroxy-phenyl)7-[1,3,4]oxadiazol-2-yl-benzofuran-5-ol] | 260 to 266 °C
O=C(O)c1ccc2oc(-c3ccc(O)cc3)cc2c1 [Example 143, 2-(4-Hydroxy-phenyl)-benzofuran-5-carboxylic acid] | > 300 °C

Now from value to compound:

melting point | Structure (SMILES)
178 to 180 °C | CCCc1cc(O)cc2cc(-c3ccc(O)cc3)oc12 (as salt: HCl) [Example 35, 2-(4-Hydroxy-phenyl)-7-propyl-benzofuran-5-ol]
186 to 188 °C | COCc1cc(O)cc2cc(-c3ccc(O)cc3)oc12 [Example 6, 2-(4-Hydroxy-phenyl)-7-methoxymethyl-benzofuran-5-ol]
166 to 168 °C | CCOCc1cc(O)cc2cc(-c3ccc(O)cc3)oc12 [Example 7, 7-Ethoxymethyl-2-(4-hydroxy-phenyl)-benzofuran-5-ol]
195 to 197 °C | CC(C)OCc1cc(O)cc2cc(-c3ccc(O)cc3)oc12 [Example 8, 2-(4-Hydroxy-phenyl)-7-isopropoxymethyl benzofuran-5-ol]
175 to 177 °C | Oc1ccc(-c2cc3cc(O)cc(CSc4ccccc4)c3o2)cc1 [Example 12, 2-(4-Hydroxy-phenyl)-7-phenylsulfanylmethyl-benzofuran-5-ol]
284 °C | CC(C)(C#N)c1cc(O)cc2cc(-c3ccc(O)cc3)oc12 [Example 22, 2-[5-Hydroxy-2-(4-hydroxy-phenyl)-benzofuran-7-yl]-2-methyl-propionitrile]
260 to 262 °C | O=C(O)c1cc(O)cc2cc(-c3ccc(O)cc3)oc12 [Example 24, 5-Hydroxy-2-(4-hydroxy-phenyl)-benzofuran-7-carboxylic acid]
258 to 260 °C | OCc1cc(O)cc2cc(-c3ccc(O)cc3)oc12 [Example 25, 7-Hydroxymethyl-2-(4-hydroxy-phenyl)-benzofuran-5-ol]
> 250 °C | CC(C)OC(=O)c1cc(O)cc2cc(-c3ccc(O)cc3)oc12 [Example 36, 5-Hydroxy-2(4hydroxy-phenyl)-benzofuran-7-carboxylic acid Isopropyl ester]
220 to 222 °C | CCCOC(=O)c1cc(O)cc2cc(-c3ccc(O)cc3)oc12 [Example 37, 5-Hydroxy-2-(4-hydroxy-phenyl)-benzofuran-7-carboxylic acid propyl ester]
236 to 238 °C | COC(=O)c1cc(O)cc2cc(-c3ccc(O)cc3)oc12 [Example 38, 5-Hydroxy-2-(4-hydroxy-phenyl)-benzofuran-7-carboxylic acid methyl ester]
221 to 223 °C | CCOC(=O)c1cc(O)cc2cc(-c3ccc(O)cc3)oc12 [Example 39, 5-Hydroxy-2-(4-hydroxy-phenyl)-benzofuran-7-carboxylic acid ethyl ester]
275 °C (dec.) | NC(=O)C=Cc1cc(O)cc2cc(-c3ccc(O)cc3)oc12 [Example 61, 3-[5-Hydroxy-2-(4-hydroxyphenyl)-benzofuran-7-yl]-acrylamide]
215 to 217 °C | Oc1ccc(-c2cc3c(Br)c(O)cc(Br)c3o2)cc1 [Example 63, 4,7-Dibromo-2-(4-hydroxy-phenyl)-benzofuran-5-ol]
205 °C (dec.) | COc1cc(O)c(C=NO)c2cc(-c3ccc(O)cc3)oc12 [Example 72, 5-Hydroxy-2-(4-hydroxy-phenyl)-7-methoxy-benzofuran-4-carbaldehyde oxime]
167 to 169 °C | Cc1cc(O)ccc1-c1cc2cc(O)ccc2o1 [Example 80, 2-(4-Hydroxy-2-methyl-phenyl)-benzofuran-5-ol]
172 to 174 °C | CC(C)(C)c1ccc2oc(-c3ccc(O)cc3)cc2c1 [Example 92, 4-(5-tert-Butyl-benzofuran-2-yl)-phenol]
152 to 154 °C | Oc1ccc(-c2cc3cc(F)cc(F)c3o2)cc1 [Example 94, 4-(5,7-Difluoro-benzofuran-2-yl)-phenol]
203 to 205 °C | Oc1ccc(-c2cc3cc(Br)cc(Br)c3o2)cc1 [Example 95, 4-(5,7-Dibromo-benzofuran-2-yl)-phenol]
251 to 254 °C | Nc1cc(O)cc2cc(-c3ccc(O)cc3)oc12 [Example 100, 7-Amino-2-(4-hydroxy-phenyl)-benzofuran-5-ol]
195 °C | Oc1ccc(-c2cc3cc(O)ccc3o2)c(Br)c1 [Example 102, 2-(2-Bromo-4-hydroxy-phenyl)-benzofuran-5-ol]
238 to 239 °C | Oc1ccc(-c2cc(O)ccc2-c2cc3cc(O)ccc3o2)cc1 [Example 105, 6-(5-Hydroxy-benzofuran-2-yl)-biphenyl-3,4′-diol]
217 °C | CC(=NO)c1c(-c2ccc(O)cc2)oc2ccc(O)cc12 [Example 111, 1-[5-Hydroxy-2-(4-hydroxy-phenyl)-benzofuran-3-yl]-ethanone oxime]
177 to 182 °C | CC(O)c1c(-c2ccc(O)cc2)oc2ccc(O)cc12 (stereo not drawn) [Example 113, 3-(1-Hydroxy-ethyl)-2-(4-hydroxy-phenyl)-benzofuran-5-ol]
218 to 222 °C | Oc1ccc2oc(-c3ccc(O)c(F)c3)cc2c1 [Example 126, 2-(3-Fluoro-4-hydroxy-phenyl)-benzofuran-5-ol]
> 230 °C | N#Cc1c(O)ccc2oc(-c3ccc(O)cc3)cc12 [Example 135, 5-Hydroxy-2-(4-hydroxy-phenyl)-benzofuran-4-carbonitrile]
210 to 213 °C | Oc1ccc(-c2cc3cc(O)cc(CC(F)(F)F)c3o2)cc1 [Example 141, 2-(4-Hydroxy-phenyl)-7-(2,2,2-trifluoro-ethyl)-benzofuran-5-ol]
